Laboratory results published in article PMC5362899, “Structural insights into the nucleotide base specificity of P2X receptors” (Scientific Reports, 2017).

Target: T1, zfP2X4 (ΔP2X4-C) T189S mutant (Danio rerio, UniProt F8W463, N187R/N78K/T189S)
T1 construct: EGFP (N); octa-histidine tag (N); made in house; host or cells: Sf9 insect cells
T1 sequence (F8W463 28-365 N78K/N187R/T189S limits assumed): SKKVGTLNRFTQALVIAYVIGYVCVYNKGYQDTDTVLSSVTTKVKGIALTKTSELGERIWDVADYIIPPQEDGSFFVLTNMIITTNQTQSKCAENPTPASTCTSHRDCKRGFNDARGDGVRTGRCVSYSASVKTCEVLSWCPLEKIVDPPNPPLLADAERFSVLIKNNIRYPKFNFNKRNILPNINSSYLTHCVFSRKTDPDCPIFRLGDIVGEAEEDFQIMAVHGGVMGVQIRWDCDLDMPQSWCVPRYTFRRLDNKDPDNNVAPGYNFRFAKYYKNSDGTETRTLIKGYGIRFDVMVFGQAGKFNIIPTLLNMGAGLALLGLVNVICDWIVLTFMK
Experiment: ATR-FTIR difference spectroscopy, residual nucleotide after washing, zfP2X4 T189S
Assay type: binding, zebrafish
Settings: 10 μM nucleotide, after 15–30 min washing, P-O stretching bands 1250–800 cm−1
Excerpt: To further investigate the nucleotide binding specificity of zfP2X4, we applied ligand-binding induced difference Attenuated total reflectance (ATR)-Fourier-transform infrared (FTIR) spectroscopy on the WT and conserved threonine mutants (T189S and T189V) of zfP2X4.
Figure 5 ATR-FTIR spectroscopic analysis of zfP2X4 for the ATP and CTP bindings. (A) The reduction of the ligand binding induced difference spectra in the ΔP2X4-C ^zfWT, ^zfT189S and ^zfT189V mutants around the P-O stretching region (1250–800 cm^−1) after washing treatment for 15–30 min. (B) The residual nucleotides after the washing treatment estimated from the ATR-FTIR analysis in (A).
The nucleotide binding affinity of zfP2X4 was analyzed by reduction of the band intensity after washing treatment (Fig. 5). The reduction of the P-O stretching bands between 1250–800 cm^−1 was monitored for ATP (Fig. 5A). […]
The perfusion-induced difference FTIR spectroscopy was performed as similarly to the previous studies. […] ATR-FTIR spectra of the samples were recorded at 25 °C and 2 cm^−1 resolution using a VERTEX 70 spectrometer (Bruker Optics) equipped with a liquid-nitrogen-cooled MCT detector. […] The obtained difference spectra were normalized based on the absolute absorbance of the amide I band at 1653 cm^−1, which well correlates with the quantities of the proteins on the ATR crystals. […]

Compound	residual nucleotide binding after washing
Nc1ncnc2c1ncn2[C@@H]1O[C@H](COP(=O)(O)OP(=O)(O)OP(=O)(O)O)[C@@H](O)[C@H]1O [ATP, Adenosine 5-triphosphate]	~ 60%
Nc1ccn([C@@H]2O[C@H](COP(=O)(O)OP(=O)(O)OP(=O)(O)O)[C@@H](O)[C@H]2O)c(=O)n1 [CTP]	~ 30%
